Test results as given in US8686113B2 (priority 2009, dated 2014).
Converted amounts (≈) assume the structure as drawn. Like-named read-outs stand apart in the source and are kept apart here. Non-standard residues stand in square brackets, D forms with d. Residues, ends and D or L forms follow the SMILES beside them. No end group written: not given here. Hyp = O=C(O)[C@@H]1C[C@@H](O)CN1; Tle = CC(C)(C)[C@H](N)C(=O)O; Orn = NCCC[C@H](N)C(=O)O

Assays:
E. coli BL21 A1 = format: cell-based, Escherichia coli
Method in brief: (§1)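 Broth microdilution in 1% TSB with twofold peptide series, final 128 μg/mL to 62.5 ng/mL, against 5×10^6 bacteria/mL stock suspension added 1:1. Incubated 20 h at 37 °C, growth read by absorbance at 595 nm; MIC is the lowest concentration with no growth, determined in triplicate.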

[1] = mouse, serum
Description: (§3) For this, the peptides and peptidomimetics were dissolved in water, mouse serum was added and the peptide concentration was adjusted to 75 μg/mL. While shaking continuously, the mixture was incubated at 37° C. After 0, 30, 60, 120, 240 and 360 minutes, in each case an aliquot was taken and mixed with 15% aqueous trichloroacetic acid (Carl Roth GmbH & Co. KG; Karlsruhe, Germany). After incubation on ice for a further 10 minutes, the precipitated serum proteins were centrifuged off (5 min, 13400 rpm, MiniSpin, Eppendorf AG, Hamburg, Germany). The supernatant was removed, neutralized with 1 mol/L aqueous sodium hydroxide solution (Fluke Chemie GmbH, Buchs, Switzerland) and stored at −20° C. until analysis.
(§4) The supernatants were analyzed by RP-HPLC with a linear acetonitrile gradient (Biosolve BV, Valkenswaard, The Netherlands) in the presence of 0.1% trifluoroacetic acid (TFA, UV-grade, Fluka Chemie GmbH, Buchs, Switzerland) as ion-pairing reagent. The fractions were co-crystallized with α-cyanohydroxycinnamic acid (Bruker Daltonik GmbH; Bremen, Germany) as matrix (5.3 mg/mL in 50% acetonitrile in 0.1% aqueous TFA) and were analyzed with a tandem mass spectrometer (MALDI-TOF/TOF-MS, 4700 Proteomics Analyzer; Applied Biosystems GmbH, Weiterstadt, Germany) in the positive-ion reflector mode. The proportion of intact peptides and their degradation products or metabolites could thus be identified and quantified at the individual time points. The control used was 25% aqueous mouse serum, which was analyzed in parallel for the same time intervals.

[2] = mouse, serum, Half-life in 25% mouse serum, 25% aqueous mouse serum, 37° C., 75 μg/mL peptide
E. coli ATCC BAA-457 = settings: ¼ Muller-Hinton medium
[3] = test system: K. pneumoniae K6 ATCC 700603; settings: ATCC 700603
E. coli 045-849 SENTRY = settings: ¼ Muller-Hinton medium
P. vulgaris ATCC 6896 = settings: ATCC 6896
P. mirabilis ATCC 7002 = settings: ATCC 7002
K. pneumoniae ATCC 27799 = settings: ATCC 27799
[4] = test system: S. typhimurium ATCC 700408
[5] = test system: P. aeruginosa 10 J. Wilson
[6] = test system: S. typhimurium s5 (J. Weiser); settings: ¼ Muller-Hinton medium
[7] = test system: S. typhimurium ATCC 14028
E. coli D31 J. Wilson = settings: ¼ Muller-Hinton medium
S. saprophyticus 15305 = settings: 15305
M. luteus 10240 [8] = assay: Growth inhibition assay (microdilution MIC); format: cell-based, Micrococcus luteus
Method in brief: as §1

[9] = 25% aqueous mouse serum, 37° C., 75 μg/mL peptide
in vitro [10] = settings: mouse, 100% mouse serum
Description: as §3, §4

[11] = test system: Pseudomonas aeruginosa DSM 3227
[12] = test system: Escherichia coli DSM 10233
[13] = test system: Klebsiella pneumoniae DSM 681
[14] = Stability against bacterial proteases in E. coli lysate; format: in vitro ADME; settings: E. coli lysate with 0.5 mg/mL protein concentration
Method in brief: (§2)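 Peptide (0.15 μg/mL) incubated at 37° C. in E. coli BL21 A1 sonicated lysate in PBS pH 7.4, Bradford-adjusted to 1.5 or 0.5 mg/mL protein. Samples at 0–360 min TCA-precipitated and neutralized. Intact peptide and fragments quantified by HPLC, identified by MALDI-TOF-MS.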

[15] = test system: bacterial proteases (E. coli BL21 A1 lysate); assay: as above; format: in vitro ADME; settings: 37° C.
Method in brief: as §2

human erythrocytes = assay: Hemolysis test; format: cell-based; settings: 1 h at 37° C., relative to Triton X-100
Description: Another possibility for investigating the cytotoxicity of the peptides and peptide derivatives is the hemolysis test. The hemolytic activity is investigated on human erythrocytes (Ryge T S & Hansen P R. Potent antibacterial lysine-peptoid hybrids identified from a positional scanning combinatorial library. Bioorganic & Medicinal Chemistry 14: 4444-51, 2006), which the Leipzig University Hospital (Germany) made available as human erythrocyte concentrate in sodium chloride-adenine-glucose-mannitol buffer (stored at 4° C.). The erythrocytes were centrifuged off at 1000 g and washed three times with ten times the volume of cold phosphate-buffered saline (PBS, pH 7.4). The erythrocytes were diluted to a final concentration of 1% in PBS. One hundred microliters of erythrocyte suspension was pipetted into each V-shaped well of a 96-well polypropylene microtiter plate (Greiner Bio-One GmbH). Then 100 μL of the peptides dissolved in PBS was added to each position, to obtain a dilution series from 600 μg/mL to 4.7 μg/mL in seven dilution steps. The microtiter plate was incubated at 37° C. for 1 h and then centrifuged at 1000*g. 100 μL was taken from the supernatant, transferred to a 96-well flat-bottomed polystyrene microtiter plate (Greiner Bio-One GmbH) and the absorption was determined at 405 nm in a Sunrise microtiter plate reader (Tecan Trading AG, Mannedorf, Switzerland), to evaluate the release of the heme group. PBS or 0.1% Triton X-100® ((p-tert-octylphenoxy) polyethoxyethanol; Fluka Chemie GmbH, Buchs, Switzerland) and melittin (SIGMA-Aldrich-Laborchemikalien, Taufkirchen, Germany) were used as negative or positive controls. All hemolysis tests were carried out twice independently as double determination and the degree of hemolysis was determined from the following equation (Park Y et al. A Leu-Lys-rich antimicrobial peptide: activity and mechanism. Biochimica et Biophysica Acta-Proteins and Proteomics 1645: 172-82, 2003): Epeptide−EPBS)/ETriton−EPBS)×100% E=extinction at 405 nm

[16] = background statement; cited from earlier work
M. luteus 10240 [17] = format: cell-based, Micrococcus luteus; settings: alanine scan
Description: The purified peptides and peptide derivatives were diluted in water to a final concentration of 500 μg/mL. The test microbes were plated out from a culture in the logarithmic growth phase at a concentration of approx. 3×10^5 cells/mL in 1% tryptic soy broth and 1.2% agarose (Fluka Chemie GmbH, Buchs, Switzerland). With spacing of 3 cm, in each case 10 μL of aqueous peptide solution (500 μg/mL) or 10 μL of water and antibiotic solution as controls were added dropwise. After incubation for 20 h at 37° C., the inhibition zone diameter (IZD) was determined. All tests were performed in aerobic conditions.

[18] = E. coli lysate with 0.5 mg/mL protein concentration; settings: E. coli BL21 A1, 37° C., up to 360 min
in vitro [19] = settings: mouse, 25% aqueous mouse serum, Half-life in 25% mouse serum, 37° C., 75 μg/mL peptide
25% aqueous mouse serum = settings: 37° C., up to 360 minutes
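Wherever Half-life in 25% mouse serum is given: intact peptide left at successive time points measured by reversed-phase HPLC with an acetonitrile gradient in the supernatant after precipitation of serum proteins.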

CC[C@H](C)[C@H](NC(=O)[C@H](CCCNC(=N)N)NC(=O)[C@H](CCCNC(=N)N)NC(=O)[C@@H]1C[C@@H](O)CN1C(=O)[C@@H]1CCCN1C(=O)[C@H](CCCNC(=N)N)NC(=O)[C@@H]1CCCN1C(=O)[C@H](CCCNC(=N)N)NC(=O)[C@@H]1CCCN1C(=O)[C@H](CC(C)C)NC(=O)[C@H](Cc1ccc(O)cc1)NC(=O)[C@@H]1CCCN1C(=O)[C@@H]1CCCN1C(=O)[C@H](CCCCN)NC(=O)[C@H](CC(=O)O)NC(=O)[C@@H](N)C(C)C)C(=O)N[C@@H](Cc1ccc(O)cc1)C(=O)N[C@@H](CC(N)=O)C(=O)N[C@@H](CCCNC(=N)N)C(N)=O [compound 24] (H-VDKPPYLPRPRP[Hyp]RRIYNR-NH2)
MIC E. coli BL21 A1 (E. coli BL21 A1; BL21, 20 h): 8 µg/mL (≈ 3.33 µM)
half-life [1]: 0.583 h
half-life [2]: 1 h
MIC E. coli SEQ 102ATCC # BAA-4 57 (E. coli ATCC BAA-457): 4 µg/mL (≈ 1.66 µM)
MIC K. pneumoniae K6 ATCC 700603 [3]: 8 µg/mL (≈ 3.33 µM)
MIC E. coli 045-849 SENTRY (E. coli 045-849 SENTRY): 2 µg/mL (≈ 0.831 µM)
MIC P. vulgaris ATCC 6896 (P. vulgaris ATCC 6896): 128 µg/mL (≈ 53.2 µM)
MIC P. mirabilis ATCC 7002 (P. mirabilis ATCC 7002): 128 µg/mL (≈ 53.2 µM)
MIC K. pneumoniae ATCC 27799 (K. pneumoniae ATCC 27799): 8 µg/mL (≈ 3.33 µM)
MIC P. aeruginosa 39324 (P. aeruginosa 39324): 4 µg/mL (≈ 1.66 µM)
MIC S. typhimurium ATCC 700408 [4]: 0.13 µg/mL (≈ 0.054 µM)
MIC P. aeruginosa 10 J. Wilson [5]: 2 µg/mL (≈ 0.831 µM)
MIC K. pneumoniae 012-3131 (K. pneumoniae 012-3131): 2 µg/mL (≈ 0.831 µM)
MIC S. typhimurium s5 (J. Weiser) [6]: 2 µg/mL (≈ 0.831 µM)
MIC S. typhimurium ATCC 14028 [7]: 2 µg/mL (≈ 0.831 µM)
MIC E. coli D31 J. Wilson (E. coli D31 J. Wilson): 1 µg/mL (≈ 0.416 µM)
MIC S. saprophyticus 15305 (S. saprophyticus 15305): 16 µg/mL (≈ 6.65 µM)
MIC M. luteus 10240 (M. luteus 10240 [8]; 10240, 20 h): 8 µg/mL (≈ 3.33 µM)

CC[C@H](C)[C@H](NC(=O)[C@@H]1C[C@@H](O)CN1C(=O)[C@H](CCCNC(=N)N)NC(=O)[C@@H]1CCCN1C(=O)[C@@H]1CCCN1C(=O)[C@H](CCCNC(=N)N)NC(=O)[C@@H]1CCCN1C(=O)[C@H](CCCNC(=N)N)NC(=O)[C@@H]1CCCN1C(=O)[C@H](CC(C)C)NC(=O)[C@H](Cc1ccc(O)cc1)NC(=O)[C@@H]1CCCN1C(=O)[C@@H]1CCCN1C(=O)[C@H](CCCCN)NC(=O)[C@H](CC(=O)O)NC(=O)[C@@H](N)C(C)C)C(=O)N[C@@H](Cc1ccc(O)cc1)C(=O)N[C@@H](CC(N)=O)C(=O)N[C@@H](CCCN)C(N)=O [compound 63] (H-VDKPPYLPRPRPPR[Hyp]IYN[Orn]-NH2)
Half-life in 25% mouse serum [9]: >6 h
MIC E. coli BL21 A1 (E. coli BL21 A1; BL21, 20 h): 4 µg/mL (≈ 1.74 µM)
remaining at 8 h, 75 μg/mL (in vitro [10]): 60%
half-life [1]: > 8 h
MIC P. aeruginosa DSM 3227 [11]: 16 to 32 µg/mL
MIC E. coli DSM 10233 [12]: 1 µg/mL (≈ 0.434 µM)
MIC K. pneumoniae DSM 681 [13]: 2 µg/mL (≈ 0.868 µM)

CC(C)C[C@H](NC(=O)[C@H](Cc1ccc(O)cc1)NC(=O)[C@@H]1CCCN1C(=O)[C@@H]1CCCN1C(=O)[C@H](CCCCN)NC(=O)[C@H](CC(=O)O)NC(=O)[C@@H](N)C(C)C)C(=O)N1CCC[C@H]1C(=O)N[C@@H](CCCNC(=N)N)C(=O)N1CCC[C@H]1C(=O)N[C@@H](CCCNC(=N)N)C(=O)N1CCC[C@H]1C(=O)N1C[C@H](O)C[C@H]1C(=O)N[C@@H](CCCNC(=N)N)C(=O)N1C[C@H](O)C[C@H]1C(=O)N[C@H](C(=O)N[C@@H](Cc1ccc(O)cc1)C(=O)N[C@@H](CC(N)=O)C(=O)N[C@@H](CCCN)C(N)=O)C(C)(C)C [compound 110] (H-VDKPPYLPRPRP[Hyp]R[Hyp][Tle]YN[Orn]-NH2)
remaining at 8 h, 75 μg/mL (in vitro [10]): 70%
half-life [1]: > 8 h
remaining at 4 h, 0.15 μg/mL ([14]; E. coli BL21 A1 lysate (bacterial proteases), pH 7.4, read-out: percentage printed under half-life >240 min (peptide remaining)): 90%
Half-life in E. coli lysate ([15]; E. coli lysate with 0.5 mg/mL protein concentration): >4 h
MIC M. luteus 10240 (M. luteus 10240 [8]; 10240, 20 h): 16 µg/mL (≈ 6.89 µM)

(p-tert-octylphenoxy) polyethoxyethanol [Triton X-100, reference compound]
Degree of hemolysis [%] at 600 μg/mL (human erythrocytes): 100%

GKPRPYSPRPTSHPRPIRV [compound 89]
Degree of hemolysis [%] at 600 μg/mL (human erythrocytes): 1.1%

GKPRPYSPRPTSHPRPIRV-OH [SEQ ID NO. 89, reference compound]
degradation in mammalian serum (25%) [16]: broken down within an hour
MIC M. luteus 10240 (M. luteus 10240 [8]; 10240, 20 h): 0.5 µg/mL

GNNRPVYIPQPRPPHPRL [compound 87]
Degree of hemolysis [%] at 600 μg/mL (human erythrocytes): 1.2%

H-VDKPPYLPRPRPPRRAYNR-NH2 [SEQ ID NO. 44]
increase in inhibition zone relative to oncocin, M. luteus (M. luteus 10240 [17]): 0.7 cm

H-VDKPPYLPRPRPPRRIYAR-NH2 [SEQ ID NO. 46]
increase in inhibition zone relative to oncocin, M. luteus (M. luteus 10240 [17]): 0.7 cm

H-VDKPPYLPRPRPPRRIYNR-NH2 [compound 18]
half-life [1]: 0.5 h
half-life [2]: 1 h
MIC E. coli SEQ 102ATCC # BAA-4 57 (E. coli ATCC BAA-457): 4 µg/mL
MIC K. pneumoniae K6 ATCC 700603 [3]: 8 µg/mL
MIC E. coli 045-849 SENTRY (E. coli 045-849 SENTRY): 4 µg/mL
MIC K. pneumoniae ATCC 27799 (K. pneumoniae ATCC 27799): 16 µg/mL
MIC P. aeruginosa 10 J. Wilson [5]: 8 µg/mL
MIC S. typhimurium s5 (J. Weiser) [6]: 4 µg/mL
MIC S. typhimurium ATCC 14028 [7]: 2 µg/mL
MIC P. aeruginosa DSM 3227 [11]: >32 µg/mL
MIC E. coli DSM 10233 [12]: 16 µg/mL
MIC K. pneumoniae DSM 681 [13]: 4 µg/mL
Degree of hemolysis [%] at 600 μg/mL (human erythrocytes): 1.5%
half-life ([14]; 37° C.): 1 h

VDKGSYLPRPTPPRPIYNRN-NH2 [SEQ ID NO. 91]
half-life in mammalian serum (25%) [16]: 2 h

VDKPPYLPRPRP-4tHyp-R-4tHyp-Tle-YNO-NH2
not cleaved [18]: >240 min, 90%

VDKPPYLPRPRPPRO-Tle-YNO-NH2
not cleaved [18]: >240 min, 90%

VDKPPYLPRPRPPRRIYNR-NH2 [SEQ ID NO. 18]
half-life at 75 μg/mL (in vitro [19]): 1 h
MIC E. coli BL21 A1 (E. coli BL21 A1; 1% TSB, 20 h at 37° C.): 4 µg/mL
MIC P. vulgaris ATCC 6896 (P. vulgaris ATCC 6896): 128 µg/mL
MIC P. mirabilis ATCC 7002 (P. mirabilis ATCC 7002): 128 µg/mL
MIC P. aeruginosa 39324 (P. aeruginosa 39324): 4 µg/mL
MIC S. typhimurium ATCC 700408 [4]: 0.25 µg/mL
MIC K. pneumoniae 012-3131 (K. pneumoniae 012-3131): 4 µg/mL
MIC E. coli D31 J. Wilson (E. coli D31 J. Wilson): 2 µg/mL
MIC S. saprophyticus 15305 (S. saprophyticus 15305): 16 µg/mL
half-life at 0.15 μg/mL ([15]; E. coli, E. coli BL21 A1 lysate, pH 7.4, E. coli lysate with 0.5 mg/mL protein concentration): 1 h
MIC M. luteus 10240 (M. luteus 10240 [8]; 1% TSB, 20 h at 37° C.): 8 µg/mL

VDKPPYLPRPRPPRRIYNR-OH
cleaved bond (25% aqueous mouse serum): Asn18-arginine19, first_seen
